The subject of assay [1] is C4-2 cells. Description: Colony formation assay, C4-2 cells. It is filed as cell-based. Conditions: 2-63 2.5 μM plus BSO 5 μM, 24 h, then drug-free medium 8 days. As to the method:
Colony formation assay. Cells (22Rv1 or C4-2) were seeded in six-well plates (1,000/well) and cultured overnight. Cells were then treated with 2-63 (1 μM in 22Rv1; 2.5 μM in C4-2), BSO (5 μM) alone or in combination for 24 h. Cells were washed and cultured in a drug-free medium (22Rv1, 11 days; C4-2, 8 days). On the last day, the medium was removed, cells were washed with PBS and fixed with methanol. The colonies were stained with crystal violet solution for 3 h at room temperature and air-dried.

The test system of another assay is PARP cleavage. The assay can be described thus: PARP cleavage under 2-63 plus BSO in PCa cells. Format: cell-based. Conditions: 2-63 plus BSO combination, data not shown. From the text: 2-63 and BSO combination induces ferroptosis in PCa cells. […] Because both ITC and BSO change redox balance, and because the significant upregulation of HO-1 by 2-63 (FIG. 21) may increase free ferrous iron (Fe2+) inside cells, ferroptosis, a recently defined non-apoptotic cell death mechanism that occurs due to ROS and iron-caused oxidative lipid damage (Stockwell, et al., Cell 2017, 171, 273-285) was explored.

Assay [2] concerns AR transcriptional activity in MDA-kb2 cells. Description: cells. It is filed as cell-based. Conditions: DHT 1 nM. The procedure: MDA-kb2-cell-based ARE luciferase assays were performed to assess the influence of 2-63 and related compounds on AR transcriptional activity. […] Upon androgen stimulation and addition of a luciferase substrate, […], and the intensity is proportional to the extent of AR activation. An agent that either antagonistically competes with DHT for AR binding or reduces the expression of AR diminishes luciferase activity/fluorescence signal in this experimental system. […] 10b (an alcohol) and 11 b (an azide) are synthetic precursors of the ITC hybrid 12b.
Luciferase Assay. […] For all procedures, cells were incubated at CO2 free condition. Steady-Glo® (Promega Corp., Madison, WI) reagent was added to culture media with shaking for 10 min. Samples (100 μL) were transferred to an opaque 96-well white plate, and luminescence was measured using a luminometer.

In assay [3] the test system is C4-2 cells. Description: MTT viability assay, C4-2 cells. Format: cell-based. Conditions: 5 μM, 72 h. The text has this:
Biological Characterization. ITC-ARi hybrid drugs effectively reduce the viability of PCa cells. By using an MTT assay, it was first examined if the newly synthesized hybrid drugs affect the viability of CRPC-relevant PCa cells. PCa VCaP cells naturally express abundant wild type FL AR as well as AR splice variants (e.g., AR-V7). These cells were, therefore, used as one of the cell culture models in this work to investigate the drug-caused viability loss and AR downregulation.
In general terms: Formazan colour is commonly taken as a measure of viable cells.

The test system of another assay is LNCaP and RWPE-1 cells. Description: MTT viability, PCa LNCaP versus non-cancerous RWPE-1 cells. It is filed as cell-based. Conditions: 72 h, 2.5 to 10 μM. From the text:
Because of the better selectivity and water solubility of 2-63 over 12b, 2-63 was used for further in vitro characterization and mechanistic studies.

Another assay deals with 22Rv1 cells. Description: BSO pretreatment plus drug, MTT viability, 22Rv1 cells.
For assay [4], the target named is T1, FL AR and AR-V7 (Homo sapiens, UniProt P10275).
T1 construct: Whole cell lysates were subjected to Western blotting and probed with the indicated antibodies; endogenous in cells; host or cells: VCaP
T1 sequence (P10275 1-920): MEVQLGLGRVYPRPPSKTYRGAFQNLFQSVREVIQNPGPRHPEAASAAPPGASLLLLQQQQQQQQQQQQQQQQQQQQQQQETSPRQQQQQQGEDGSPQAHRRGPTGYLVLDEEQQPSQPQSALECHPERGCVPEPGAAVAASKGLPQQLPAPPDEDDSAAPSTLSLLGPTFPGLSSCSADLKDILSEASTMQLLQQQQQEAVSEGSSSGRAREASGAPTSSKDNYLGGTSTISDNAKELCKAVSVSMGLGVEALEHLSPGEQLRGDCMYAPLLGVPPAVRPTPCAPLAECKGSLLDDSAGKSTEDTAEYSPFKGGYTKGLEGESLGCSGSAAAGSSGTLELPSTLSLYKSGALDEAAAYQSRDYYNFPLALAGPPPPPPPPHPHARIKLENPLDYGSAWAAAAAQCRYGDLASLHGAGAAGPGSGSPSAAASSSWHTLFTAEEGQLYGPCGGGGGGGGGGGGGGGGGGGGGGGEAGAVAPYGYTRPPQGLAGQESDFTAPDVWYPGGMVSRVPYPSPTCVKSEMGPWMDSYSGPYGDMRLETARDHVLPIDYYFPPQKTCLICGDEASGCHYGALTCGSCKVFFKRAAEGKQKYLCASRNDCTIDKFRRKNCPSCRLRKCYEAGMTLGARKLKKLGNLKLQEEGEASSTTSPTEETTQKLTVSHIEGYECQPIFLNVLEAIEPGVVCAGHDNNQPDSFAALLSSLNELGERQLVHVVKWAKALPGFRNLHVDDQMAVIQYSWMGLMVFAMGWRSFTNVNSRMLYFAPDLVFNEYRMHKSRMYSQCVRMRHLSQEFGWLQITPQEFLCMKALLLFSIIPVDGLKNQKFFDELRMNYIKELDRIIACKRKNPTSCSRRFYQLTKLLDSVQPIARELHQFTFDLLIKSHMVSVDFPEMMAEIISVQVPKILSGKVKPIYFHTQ
The assay can be described thus: Western blotting of FL AR and AR-V7 in VCaP cells. Conditions: full media, 16 h, 2-63, 12b 5 and 15 μM, Enz 10 μM, SAHA 1 μM. Format: cell-based. The procedure: (§1) Western Blotting. […] Proteins in cell lysates (40 μg) were separated using electrophoresis on SDS-PAGE and transferred onto PVDF (polyvinylidenedifluoride) membranes. Membranes were blocked in 5% fat-free milk followed by incubation with primary antibodies overnight at 4° C., and the secondary horseradish peroxidase-conjugated anti-rabbit or anti-mouse antibodies. The blots were developed in the Enhanced Chemiluminescence mixture and detected by ImageQuant™ LAS 4000 imaging system (GE). Density of protein bonds were calculated and analyzed by using imageJ software downloaded from the National Institute of Health website.
On the technique in general: Immunoblotting shows a protein as a band on a membrane.

Assay [5] deals with FL AR and AR-V7. The assay can be described thus: Western blotting of FL AR and AR-V7 in VCaP cells. It is filed as cell-based. The following applies: 10 μM, 12 h time course. As to the method: as §1
The test system of the next assay is AR-V7, Hsp70, HO-1. Description: Western blotting under BSO combination, 22Rv1 cells. Format: cell-based. The following applies: 2-63 2.5 μM plus BSO 100 μM, 24 h. As to the method:
It was first investigated if iron chelators or antioxidants could rescue the viability of drug combination-treated cells. […] HO-1 catalyzes the decomposition of heme into carbon monoxide, biliverdin, and Fe^2+. […] Both Fer-1 and the lipophilic antioxidant α-Toc can effectively scavenge radicals in phosphatidylcholine lipid bilayers and break the redox cycle that generates lipid hydroperoxide.
as §1

For `CC(=O)N[C@H](CSC(=S)NCCCCCCc1ccc(N2C(=S)N(c3ccc(C#N)c(C(F)(F)F)c3)C(=O)C2(C)C)cn1)C(=O)O` [2-63, N-acetyl-S-((6-(5-(3-(4-cyano-3-(trifluoromethyl)phenyl)-5,5-dimethyl-4-oxo-2-thioxoimidazolidin-1-yl)pyridine-2-yl)hexyl)carbamothioyl)-D-cysteine], in the assay on C4-2 cells [1], the “colony formation of C4-2 cells” value was “very efficiently suppressed colony formation”. In the assay on PARP cleavage, the PARP cleavage result is on record as “did not cause detectable PARP cleavage”. Besides, the “AR inhibition at 1 μM relative to Enz, 10b and 11b” value in assay [2] (1 μM) is “less effective”. In addition, the “suppression of DHT-stimulated luciferase activity” value in assay [2] (1-5 μM) is recorded as “decreased luciferase activity in a dose-dependent manner”. Besides, the “AR inhibition at higher concentrations relative to comparators” value in [2] (2.5 and 5 μM) was “similarly with these non-ITC-containing compounds”. For the same molecule, the “relative potency in viability reduction, C4-2 cells” value in the assay with C4-2 cells [3] was found to be 12b>2-63>PEITC-NAC. Besides, in the assay with LNCaP and RWPE-1 cells, the “differential anti-proliferative effect, LNCaP vs RWPE-1 cells” value is given as “more tolerated by RWPE-1 cells”. The “combinatorial effect with BSO (interaction index), 22Rv1” value in the assay on 22Rv1 cells (BSO 2.5-10 μM 16 h pretreatment, then 2-63 1-10 μM 24 h, synergism = index <0.8) is “synergistically reduced viability”. In addition, the cytotoxicity at 5 µM with 22Rv1 cells (Homo sapiens, 22Rv1, 24 h, read-out: viability reduction, 22Rv1 cells) was found to be 65%. In addition, the “FL AR expression” value on FL AR and AR-V7 [4] was “dose-dependently decreased”. Moreover, the “FL AR and AR-V7 in time course” value in the assay with FL AR and AR-V7 [5] is “time-dependent decline”. Moreover, the “AR-V7 expression, 22Rv1 cells” value with AR-V7, Hsp70, HO-1 was “effectively depletes AR-V7”.

The values above are taken from patent US12133846B2, “Electrophilic androgen receptor (AR) antagonists for AR downregulation and ferroptosis induction in cancer cells” (priority 2019, dated 2024).
